Laboratory results taken from patent publication US6413976B1, “Compositions and method for decreasing neuropathic pain” (Trustees of Dartmouth College, priority 1999, dated 2002).

How the values were obtained:
[1] = tested on: humans with neurodegenerative disease; details: Alzheimer's Disease and vascular dementia; cited from earlier work
[2] = oral dosing; cited from earlier work
[3] = tested on: spinal nerve transection in the rat; assay: Spinal nerve transection model of chronic neuropathic pain, mechanical allodynia (von Frey filaments); format: in vivo; details: for mechanical allodynia: L5 spinal nerve transection, dose-dependent
Experimental: Experiments were performed using a well-established animal model for chronic pain, spinal nerve transection in the rat. The model measures changes in mechanical allodynia, or an increased sensitivity following non-noxious stimulus, such as touch. Rats were injected intraperitdneally one day before and then daily for ten days following nerve transection. […] The effect was dose-dependent, with larger reductions seen with higher doses of the drug.
The same model. was used with rats injected intrathecally with either saline or propentofylline (1 or 3 μg), daily for 10 days. […] The responses were also dose-dependent with the largest reduction seen at the highest dose tested.
Surgery was performed under inhalation anesthesia using halothane in 100% oxygen at 4% and maintained at 2%. Each rat received a single unilateral lesion directed at a left L5 spinal root or spinal nerve. The nerve was identified, freed from adjacent nerves and transected. For sham lesions, a minilaminectomy was performed of the L5 vertebral segment without lesioning. Animals were allowed to recover from anesthesia and were not subjected to any additional surgical procedures or anesthesia until the end of the study when they were euthanized.
Propentofylline was injected intraperitoneally at doses of 1 and 10 mg/kg the day before and for each day of testing (10 days). Saline injections served as a control. Other rats were injected intrathecally at doses of 1 and 3 μg on each day of testing.
Mechanical hypersensitivity was measured as the frequency of foot withdrawals elicited by a defined mechanical stimulus. […]
In blinded testing, rats were subjected to sequential series of 10 tactile stimulations to the plantar surface of the ipsilateral hindpaw using 2 and 12 gauge von Frey filaments (Stoelting Co., WoodDale, Ill.) sequentially. […] Mechanical sensitivity was assessed by recording the total number of responses elicited during three successive trials separated by at least 10 minutes.

SMILES: CCCn1cnc2c1c(=O)n(CCCCC(C)=O)c(=O)n2C [propentofylline, Propentofylline]
- safety and efficacy in clinical trials [1]: both safe and effective
- absorption and metabolism [2]: well absorbed and extensively metabolized
- mechanical allodynia ([3]; intraperitoneal 1 and 10 mg/kg, one day before and daily for ten days): significant decrease in mechanical allodynia
- mechanical allodynia ([3]; intrathecal 1 or 3 μg daily for 10 days vs saline): significant decrease in mechanical allodynia
- responses to stimulation (foot withdrawals to von Frey filaments) ([3]; increasing doses, both central and peripheral routes): dose-dependent decreases in responses to stimulation
